Key:
Hepatitis C virus = assay: Antiviral activity against HCV 1b N infected in human HuH7 cells assessed as inhibition of viral RNA replication after 3 days by RT-PCR analysis; format: functional, organism-based, Hepacivirus hominis; conditions: genotype 1b strain N, Huh-7, 72 h
Huh-7 = assay: Cytotoxicity against human HuH7 cells up to […]; format: cell-based

SMILES	EC50 (Hepatitis C virus) [nM]	Activity (Huh-7)
O=c1c(C2=NS(=O)(=O)c3ccccc3N2)c(O)c2ccccc2n1NC1CC1	100	
O=c1c(C2=NS(=O)(=O)c3ccccc3N2)c(O)c2ccccc2n1NC1CCC1	100	
NC(=O)COc1ccc2c(c1)S(=O)(=O)N=C(c1c(O)c3ccccc3n(NC3CCC3)c1=O)N2	70	Non-toxic

Reference: ChEMBL document CHEMBL1811761, “Recent advances in drug discovery of benzothiadiazine and related analogs as HCV NS5B polymerase inhibitors” (Bioorg Med Chem, 2011)
